Earlier results in US7655212B2, “Production of silver sulfate grains using a fluorinated additive” (Eastman Kodak Company, priority 2008, dated 2010).

Assays:
Conditions in all cases: in polymethylmethacrylate bone cement at 0.5% concentration
Escherichia coli = test system: Escherichia coli
Staphylococcus aureus = test system: Staphylococcus aureus
Pseudomonas aeruginosa = test system: Pseudomonas aeruginosa

[Cl][Ag] [Silver chloride]
significantly inhibit: inhibition of bacterial growth of Escherichia coli (Escherichia coli) | inhibition of bacterial growth of Staphylococcus aureus (Staphylococcus aureus) | inhibition of bacterial growth of Pseudomonas aeruginosa (Pseudomonas aeruginosa)

O=S(=O)([O-])[O-].[Ag+].[Ag+] [silver sulfate]
significantly inhibit: inhibition of bacterial growth of Escherichia coli (Escherichia coli) | inhibition of bacterial growth of Staphylococcus aureus (Staphylococcus aureus) | inhibition of bacterial growth of Pseudomonas aeruginosa (Pseudomonas aeruginosa)

silver oxide
significantly inhibit: inhibition of bacterial growth of Escherichia coli (Escherichia coli) | inhibition of bacterial growth of Staphylococcus aureus (Staphylococcus aureus) | inhibition of bacterial growth of Pseudomonas aeruginosa (Pseudomonas aeruginosa)
